Assay results: PubChem BioAssay AID206 (DTP/NCI, 2004)
Several values for one entry are separate records, joined by “and”; a condition that tells them apart may be missing. Equal values may be shown once. Inconclusive results are not listed.

Test system: nude mice, HT29 intrarenal xenograft, tumor weight T/C
Experiment: NCI In Vivo Anticancer Drug Screen. Data for tumor model HT29;CX-1 Human Adenocarcinoma (MER+) (intrarenal inoculation) in NU/NU Swiss (nude) mice
Details: endpoint: mean tumor weight change, higher = larger tumour
Summary of the method: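 Mice with transplanted tumors are dosed with compound while controls get vehicle only. Survival or tumor burden is then assessed per group, and the treated value is expressed relative to control.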

[1] = dose: 75.0 mg/kg/injection, schedule: Q04DX004 (sc), vehicle: saline with Tween-80
[2] = dose: 150.0 mg/kg/injection, schedule: Q04DX004 (sc), vehicle: saline with Tween-80
[3] = dose: 300.0 mg/kg/injection, schedule: Q04DX004 (sc), vehicle: saline with Tween-80
[4] = dose: 600.0 mg/kg/injection, schedule: Q04DX004 (sc), vehicle: saline with Tween-80

Question: For `CN(C)P(=O)(Oc1ccccc1)N(C)C`, which T/C [1] is on record?
Answer: Its T/C is 183 % of control.

Question: What about the T/C [2] of the same compound?
Answer: The T/C was 122 % of control.

Question: What about the T/C [3] of the same compound?
Answer: The T/C was 62 % of control.

Question: And the T/C [4]?
Answer: Its T/C is 40 % of control.

Question: `OC1(CSc2ccccc2)CCCCC1` was tested. Which T/C (dose: 100.0 mg/kg/injection, schedule: Q04DX004 (sc), vehicle: saline with Tween-80) did it give?
Answer: The T/C was 113 % of control.

Question: Which T/C (dose: 160.0 mg/kg/injection, schedule: Q04DX004 (sc), vehicle: Klucel (hydroxypropylcellulose) (HPC)) does the source give for `CC[PH+](CC)CC[S-].CC[PH+](CC)CC[S-].[Au+].[Au+]` here?
Answer: Its T/C is 152 % of control.

Question: Which T/C (dose: 10.0 mg/kg/injection, schedule: Q01DX010 (sc), vehicle: dextrose) does the source give for `O=C(O)CC(=O)O.[NH-]C1CCCCC1[NH-].[Pt+2]` (configuration not stated) here?
Answer: The T/C was 264 % of control.

Question: What about the T/C (dose: 15.0 mg/kg/injection, schedule: Q01DX010 (sc), vehicle: dextrose) of the same compound?
Answer: Its T/C is 73 % of control.

Question: What about the T/C (dose: 30.0 mg/kg/injection, schedule: Q01DX010 (sc), vehicle: dextrose) of the same compound?
Answer: Its T/C is 32 % of control and 43 % of control.

Question: What about the T/C (dose: 40.0 mg/kg/injection, schedule: Q01DX010 (sc), vehicle: dextrose) of the same compound?
Answer: Its T/C is 21 % of control.

Question: What about the T/C (dose: 60.0 mg/kg/injection, schedule: Q01DX010 (sc), vehicle: dextrose) of the same compound?
Answer: The T/C was 34 % of control and 44 % of control.

Question: And the T/C (dose: 120.0 mg/kg/injection, schedule: Q01DX010 (sc), vehicle: dextrose)?
Answer: The T/C was 51 % of control.

Question: Which T/C (dose: 75.0 mg/kg/injection, schedule: Q04DX004 (sc), vehicle: Klucel (hydroxypropylcellulose) (HPC)) does the source give for `CSc1ncc2ncn(C3OC(CO)C(O)C3O)c2n1` (configuration not stated) here?
Answer: Its T/C is 95 % of control.

Question: And the T/C (dose: 150.0 mg/kg/injection, schedule: Q04DX004 (sc), vehicle: Klucel (hydroxypropylcellulose) (HPC))?
Answer: The T/C was 90 % of control.

Question: What about the T/C (dose: 300.0 mg/kg/injection, schedule: Q04DX004 (sc), vehicle: Klucel (hydroxypropylcellulose) (HPC)) of the same compound?
Answer: Its T/C is 185 % of control.

Question: And the T/C (dose: 600.0 mg/kg/injection, schedule: Q04DX004 (sc), vehicle: Klucel (hydroxypropylcellulose) (HPC))?
Answer: Its T/C is 182 % of control.

Question: Which results are given for `COc1cc(C[C@H]2c3cc(OC)c(OC)cc3CCN2C)c(Oc2cc3c(cc2OC)-c2c(OC)c(OC)cc4c2[C@H](C3)N(C)CC4)cc1OC`?
Answer: T/C (dose: 100.0 mg/kg/injection, schedule: Q01DX010 (sc), vehicle: saline with Tween-80): 100 % of control; T/C (dose: 200.0 mg/kg/injection, schedule: Q01DX010 (sc), vehicle: saline with Tween-80): 45 % of control; T/C (dose: 400.0 mg/kg/injection, schedule: Q01DX010 (sc), vehicle: saline with Tween-80): 67 % of control; T/C (dose: 800.0 mg/kg/injection, schedule: Q01DX010 (sc), vehicle: saline with Tween-80): 63 % of control

Question: With `COC1=CC(=O)C(OC)=C(OC)C1=O` as the compound, how does the T/C (dose: 38.0 mg/kg/injection, schedule: Q04DX004 (sc), vehicle: saline with Tween-80) read?
Answer: The T/C was 78 % of control.

Question: What about the T/C [1] of the same compound?
Answer: Its T/C is 88 % of control.

Question: What about the T/C [2] of the same compound?
Answer: Its T/C is 89 % of control.

Question: For `O=Cc1c(O)c2ccccc2[nH]c1=O`, which T/C [3] is on record?
Answer: The T/C was 79 % of control.

Question: What about the T/C [4] of the same compound?
Answer: Its T/C is 98 % of control.

Question: What about the T/C (dose: 1200.0 mg/kg/injection, schedule: Q04DX004 (sc), vehicle: saline with Tween-80) of the same compound?
Answer: Its T/C is 65 % of control.

Question: With `COc1cccc2c1C(=O)c1c(O)c3c(c(O)c1C2=O)C[C@@](O)(C(=O)CO)C[C@@H]3OC1CC(N(C)C)C(O)C(C)O1` (some centres not stated) as the compound, how does the T/C (dose: 1.0 mg/kg/injection, schedule: Q01DX010 (sc), vehicle: water) read?
Answer: Its T/C is 19 % of control.

Question: What about the T/C (dose: 2.0 mg/kg/injection, schedule: Q01DX010 (sc), vehicle: water) of the same compound?
Answer: The T/C was 94 % of control.

Question: And the T/C (dose: 4.0 mg/kg/injection, schedule: Q01DX010 (sc), vehicle: water)?
Answer: Its T/C is 29 % of control.

Question: With `Cc1cc2nc3[nH]c4ccccc4c3nc2cc1C` as the compound, how does the T/C (dose: 100.0 mg/kg/injection, schedule: Q01DX010 (sc), vehicle: saline) read?
Answer: The T/C was 46 % of control.

Question: And the T/C (dose: 200.0 mg/kg/injection, schedule: Q01DX010 (sc), vehicle: saline)?
Answer: The T/C was 98 % of control.

Question: And the T/C (dose: 400.0 mg/kg/injection, schedule: Q01DX010 (sc), vehicle: saline)?
Answer: Its T/C is 82 % of control.

Question: What about the T/C (dose: 800.0 mg/kg/injection, schedule: Q01DX010 (sc), vehicle: saline) of the same compound?
Answer: Its T/C is 84 % of control.

Question: How did the T/C (dose: 1.0 mg/kg/injection, schedule: Q04DX004 (sc), vehicle: water) turn out when `CCC1=C[C@H]2CN(CCc3c([nH]c4ccccc34)[C@@](C(=O)OC)(c3cc4c(cc3OC)N(C)[C@H]3[C@@](O)(C(=O)NC)[C@H](OC(C)=O)[C@]5(CC)C=CCN6CC[C@]43[C@@H]65)C2)C1` was run?
Answer: Its T/C is 106 % of control.

Question: What about the T/C (dose: 2.0 mg/kg/injection, schedule: Q04DX004 (sc), vehicle: water) of the same compound?
Answer: Its T/C is 28 % of control.

Question: And the T/C (dose: 4.0 mg/kg/injection, schedule: Q04DX004 (sc), vehicle: water)?
Answer: The T/C was -20 % of control.

Question: For `CCN(CC)CC[n+]1ccc2c(C)c3[nH]c4ccc(O)cc4c3c(C)c2c1`, which T/C (dose: 12.5 mg/kg/injection, schedule: Q04DX004 (sc), vehicle: suspension in saline) is on record?
Answer: Its T/C is 56 % of control.

Question: What about the T/C (dose: 25.0 mg/kg/injection, schedule: Q04DX004 (sc), vehicle: suspension in saline) of the same compound?
Answer: The T/C was 24 % of control.

Question: `NC1=NC(=O)N2CC12` (configuration not stated) was tested. Which T/C (dose: 50.0 mg/kg/injection, schedule: Q04DX004 (sc), vehicle: saline) did it give?
Answer: Its T/C is 103 % of control.

Question: What about the T/C (dose: 100.0 mg/kg/injection, schedule: Q04DX004 (sc), vehicle: saline) of the same compound?
Answer: Its T/C is 85 % of control.

Question: And the T/C (dose: 200.0 mg/kg/injection, schedule: Q04DX004 (sc), vehicle: saline)?
Answer: The T/C was 79 % of control.

Question: For `N=C(N)CCCCCCCCC(=N)N`, which T/C (dose: 18.75 mg/kg/injection, schedule: Q04DX004 (sc), vehicle: saline) is on record?
Answer: The T/C was 101 % of control.
